Test results reported in patent US20230051589A1, “COMPOUNDS AND COMPOSITIONS FOR TREATING CONDITIONS ASSOCIATED WITH NLRP ACTIVITY” (Novartis AG, priority 2018, published 2023).
Read-outs that look alike come from different tables or passages of the source.

Test system: IL-1β production in PMA-differentiated THP-1 cells
Assay: IL-1β production in PMA-differentiated THP-1 cells stimulated with gramicidin (hTHP-1 assay, 2% fetal bovine serum; Procedures 1-3)
Assay type: cell-based, human
Outline: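 IL-1β released into supernatants was read by HTRF after 2 h gramicidin (5 μM) challenge. Before challenge, compounds (3-fold dilutions, top 100 μM, 0.37% DMSO) were given 1 h on THP-1 cells differentiated with PMA (20 ng/ml, 16-18 h) and held in 2% FBS medium.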

[1] = Table B1, hTHP-1 assay containing 2% fetal bovine serum, gramicidin stimulation, IL-1β readout, read-out: hTHP-1 IC50 (average)
[2] = Homo sapiens, THP-1, hTHP-1 assay containing 2% fetal bovine serum, Table B2, class symbols, read-out: IC50
[3] = hTHP-1 assay containing 2% fetal bovine serum, Table B2, class symbols, read-out: IC50
[4] = Homo sapiens, THP-1, Table B3, hTHP-1 assay containing 2% fetal bovine serum, gramicidin stimulation, IL-1β readout, read-out: hTHP-1 IC50
[5] = Table B3, hTHP-1 assay containing 2% fetal bovine serum, gramicidin stimulation, IL-1β readout, read-out: hTHP-1 IC50

## COC(C)(C)c1ncc(S(N)(=O)=NC(=O)Nc2c3c(cc4c2CCC4)CCC3)s1 (single isomer, unassigned) [Example 388, (R) or (S)-N′-((1,2,3,5,6,7-hexahydro-s-indacen-4-yl)carbamoyl)-2-(2-meth-oxypropan-2-yl)thiazole-5-sulfonimidamide]
[1]
  IC50: 0.04 to 0.2 µM

## CC(C)c1cc2c(cc1NC(=O)N=S(N)(=O)c1cnc(C(C)(C)O)s1)CCC2 (centres unmarked) [Example 494, 2-(2-Hydroxypropan-2-yl)-N′-((6-isopropyl-2,3-dihydro-1H-inden-5-yl)earbamoyl)thiazole-5-sulfonimidamide]
[2]
  IC50: 0.2 to 1 µM

## CC(OC(F)F)c1ccc(S(N)(=O)=NC(=O)Nc2c3c(cc4c2CCC4)CCC3)cc1 (centres unmarked) [compound 452, 4-(1-(Difluoromethoxy)ethyl)-N′-((1,2,3,5,6,7-hexahydro-s-indacen-4-yl)carbamoyl)benzenesulfonimidamide]
[2]
  IC50: 1 to 5 µM

## CC(C)(O)c1cnc(S(N)(=O)=NC(=O)Nc2c3c(cc4c2C(=O)CC4)CCC3)s1 (single isomer, unassigned) [Example 572, (R) or (S)-5-(2-hydroxypiopan-2-yl)-N′-((3-oxo-1,2,3,5,6,7-hexahydro-s-indacen-4-yl)carbamoyl)thiazole-2-sulfonimidamide]
[3]
  IC50: 0.2 to 1 µM

## CN1CCCC(c2ccc(S(N)(=O)=NC(=O)Nc3c4c(cc5c3CC5)CCC4)c(F)c2)C1 (single isomer, unassigned) [Example 862, (R, R) or (S, R)-2-fluoro-4-(1-methylpiperidin-3-yl)-N′-((2,4,5,6-tetrahydro-1H-cyclobuta[f]inden-3-yl)carbamoyl)benzenesulfonimidamide]
[4]
  IC50: 1 to 5 µM

## CCn1ccc(S(N)(=O)=NC(=O)Nc2c3c(cc4c2CCC4)CCC3)n1 (single isomer, unassigned) [Example 813, (R) or (S)-1-ethyl-N′-((1,2,3,5,6,7-hexahydro-s-indacen-4-yl)carbamoyl)-1H-pyrazole-3-sulfonimidamide]
[5]
  IC50: 0.04 to 0.2 µM

## CC(C)(O)c1ccc(S(N)(=O)=NC(=O)Nc2c3c(cc4c2C(=O)CC4)CCC3)cn1 (single isomer, unassigned) [Example 832, (R) or (S)-6-(2-hydroxypropan-2-yl)-N′-((3-oxo-1,2,3,5,6,7-hexahydro-s-indacen-4-yl)carbamoyl)pyridine-3-sulfonimidamide]
[5]
  IC50: 0.2 to 1 µM

## CCn1ccc([S@@](N)(=O)=NC(=O)Nc2c3c(cc4c2CC4)CCC3)n1 [Compound 916b]
[2]
  IC50: 1 to 5 µM

## C[C@](O)(CO)c1ncc([S@](N)(=O)=NC(=O)Nc2c3c(cc4c2CCC4)CCC3)s1 [Example 713, (R)-2-((S)-1,2-dihydroxypropan-2-yl)-N-((1,2,3,5,6,7-hexahydro-s-indacen-4-yl)carbamoyl)thiazole-5-sulfonimidamide]
[2]
  IC50: 0.008 to 0.04 µM

## CN[C@H]1COc2c(S(N)(=O)=NC(=O)Nc3c4c(cc5c3CCC5)CCC4)cnn2C1 (stereo partly drawn) [Example 445, (6R)-N′-((1,2,3,5,6,7-hexahydro-s-indacen-4-yl)carbamoyl)-6-(methylamino)-6,7-dihydro-5H-pyrazolo[5,1-b][3]oxazine-3-sulfonimidamide]
[2]
  IC50: 0.04 to 0.2 µM

## CC(C)(CO)c1ncc(S(N)(=O)=NC(=O)Nc2c3c(c(C#N)c4c2CCC4)CCC3)s1 (single isomer, unassigned) [Example 829, (S) or (R)-N′-((8-cyano-1,2,3,5,6,7-hexahydro-s-indacen-4-yl)carbamoyl)-2-(1-hydroxy-2-methylpropan-2-yl)thiazole-5-sulfonimidamide]
[5]
  IC50: 1 to 5 µM

## CN(C)Cc1ccc(S(N)(=O)=NC(=O)Nc2c3c(cc4c2CC4)CCC3)cc1 (centres unmarked) [Example 446, 4-((Dimethylamino)methyl)-N′-(2,4,5,6-tetrahydro-1H-cyclobuta[f]inden-3-ylcarbamoyl)benzenesulfonimidamide]
[2]
  IC50: 0.2 to 1 µM

## CNCc1ccc(S(N)(=O)=NC(=O)Nc2c3c(cc4c2CC4)CCC3)cc1 (single isomer, unassigned) [Example 537, (R) or (S)-4-((methylamino)methyl)-N′-((2,4,5,6-tetrahydro-1H-cyclobuta[f]inden-3-yl)carbamoyl) benzenesulfonimidamide]
[3]
  IC50: 1 to 5 µM

## CC(C)n1nc(S(N)(=O)=NC(=O)Nc2c3c(c(C#N)c4c2CCC4)CCC3)cc1CO (single isomer, unassigned) [Example 548, (R) or (S)-N′-((8-cyano-1,2,3,5,6,7-hexahydro-s-indacen-4-yl)carbamoyl)-5-(hydroxymethyl)-1-isopropyl-1H-pyrazole-3-sulfonimidamide]
[3]
  IC50: 0.04 to 0.2 µM

## NS(=O)(=NC(=O)Nc1c2c(cc3c1CCC3)CCC2)c1ccc(-c2ccccc2)s1 (single isomer, unassigned) [Example 799, (R) or (S)-N′-((1,2,3,5,6,7-hexahydro-s-indacen-4-yl)carbamoyl)-5-phenylthiophene-2-sulfonimidamide]
[4]
  IC50: > 30 µM

## CN(Cc1ccc(S(N)(=O)=NC(=O)Nc2c3c(cc4c2CC4)CCC3)c(F)c1)C1CCC1 (centres unmarked) [Compound 891]
[2]
  IC50: 1 to 5 µM

## CC(C)(O)c1ncc(S(N)(=O)=NC(=O)Nc2c3c(cc4c2CCC4)CCC3)s1 (single isomer, unassigned) [Example 5]
[1]
  IC50: 0.2 to 1 µM

## NS(=O)(=NC(=O)Nc1c2c(cc3c1CC3)CCC2)c1cnn2c1OCCC2 (single isomer, unassigned) [Example 546, (R) or (S)-N′-((2,4,5,6-tetrahydro-1H-cyclobuta[f]inden-3-yl)carbamoyl)-6,7-dihydio-5H-pyrazolo[5,1-b][1,3]oxazine-3-suIfonimidamide]
[3]
  IC50: 0.2 to 1 µM

## NS(=O)(=NC(=O)Nc1c2c(cc3c1CCC3)CCC2)c1ccc(C2CCN2)cc1 (single isomer, unassigned) [Example 864, (R, S) or (S, S)-4-(azetidin-2-yl)-N′-((1,2,3,5,6,7-hexahydro-5-indacen-4-yl)carbamoyl)benzenesulfonimidamide]
[5]
  IC50: 5 to 30 µM

## CC(C)(O)c1csc(S(N)(=O)=NC(=O)Nc2c3c(cc4c2CCC4=O)CCC3)c1 (single isomer, unassigned) [Example 598, (R) or (S)-4-(2-hydroxypropan-2-yl)-N′-((1-oxo-1,2,3,5,6,7-hexahydro-s-indacen-4-yl)carbamoyl) thiophene-2-sulfonimidamide]
[3]
  IC50: 0.2 to 1 µM

## NS(=O)(=NC(=O)Nc1c2c(cc3c1CC3)CCC2)c1ccc(CN2CCC2)cc1F (single isomer, unassigned) [Example 524, (R) or (S)-4-(azetidin-1-ylmethyl)-2-fluoro-N′-((2,4,5,6-tetrahydro-1H-cyclobuta[f]inden-3 - yl)carbamoyl) benzenesulfonimidamide]
[3]
  IC50: 0.2 to 1 µM

## N[S@@](=O)(=NC(=O)Nc1c2c(cc3c1CCC3)CCC2)c1ccc(C2CCN2)cc1 (some centres unmarked) [Compound 802a]
[2]
  IC50: 0.2 to 1 µM

## CC(C)n1ccc(S(N)(=O)=NC(=O)Nc2c3c(cc4c2CCC4)CCC3)n1 (single isomer, unassigned) [Example 93]
[1]
  IC50: 0.04 to 0.2 µM

## CN(Cc1ccc(S(N)(=O)=NC(=O)Nc2c3c(cc4c2CC4)CCC3)c(F)c1)C1CCC1 (centres unmarked) [Example 727, 4-((cyclobutyl(methyl)amino)methyl)-2-fluoro-N′-((2,4,5,6-tetrahydro-1H-cyclobuta[f]inden-3-yl)carbamoyl)benzenesulfonimidamide]
[4]
  IC50: 1 to 5 µM

## N[S@@](=O)(=NC(=O)Nc1c2c(cc3c1CCC3)CCC2)c1ccc(C2CCNC2)cc1F (single isomer, unassigned) [Example 502, (R) or (S)-2-fluoro-N′-((1,2,3,5,6,7-hexahydro-s-indacen-4-yl)carbamoyl)-4-(pyrrolidin-3-yl)benzenesulfonimidamide]
[2]
  IC50: 0.2 to 1 µM

## CC(NC1CCC1)c1ccc(S(N)(=O)=NC(=O)Nc2c3c(cc4c2CC4)CCC3)c(F)c1 (centres unmarked) [Compound 892]
[2]
  IC50: 0.2 to 1 µM

## CC(NC1CCC1)c1ccc(S(N)(=O)=NC(=O)Nc2c3c(cc4c2CC4)CCC3)c(F)c1 (single isomer, unassigned) [Example 847, (R, R) or (S, R) -4-(1-(cyclobutylamino)ethyl)-2-fluoro-N′-((2,4,5,6-tetrahydro-1H-cyclobuta[f]inden-3-yl)carbamoyl)benzenesulfonimidamide]
[5]
  IC50: 0.2 to 1 µM

## CCn1ccc(S(N)(=O)=NC(=O)Nc2c3c(cc4c2CC4)CCC3)n1 (single isomer, unassigned) [Example 825]
[5]
  IC50: 0.04 to 0.2 µM

## CN(C)Cc1ccc(S(N)(=O)=NC(=O)Nc2c3c(cc4c2CCC4)CCC3)s1 (single isomer, unassigned) [Example 803, (R) or (S)-5-((dimethylamino)methyl)-N′-((1,2,3,5,6,7-hexahydro-5-indacen-4-yl)carbamoyl)thiophene-2-sulfonimidamide]
[5]
  IC50: 0.2 to 1 µM

## NS(=O)(=NC(=O)Nc1c2c(cc3c1CCC3)CCC2)c1cccc(CN2CCOCC2)c1 (single isomer, unassigned) [Example 551, (S) or (R)-N′-((1,2,3,5,6,7-hexahydro-s-indacen-4-yl)carbamoyl)-3-(morpholinomethyl) benzenesulfonimidamide]
Homo sapiens, THP-1, hTHP-1 assay containing 2% fetal bovine serum, Table B2, given as bound, read-out: IC50
  IC50: > 30 µM

## CN1CCc2cc(S(N)(=O)=NC(=O)Nc3c4c(cc5c3CCC5)CCC4)sc2C1 (centres unmarked) [Example 479, N′-((1,2,3,5,6,7-hexahydro-s-indacen-4-yl)carbamoyl)-6-methyl-4,5,6,7-tetrahydrothieno[2,3-c]pyridine-2-sulfonimidamide]
[2]
  IC50: 0.2 to 1 µM

## CCn1ccc(S(N)(=O)=NC(=O)Nc2c3c(cc4c2CC4)CCC3)n1 (single isomer, unassigned) [Example 826, (S) or (R) -1-ethyl-N′-((2,4,5,6-tetrahydro-1H-cyclobuta[f]inden-3-yl)carbamoyl)-1H-pyrazole-3-sulfonimidamide]
[5]
  IC50: 1 to 5 µM
